According to PubChem BioAssay (NCI):
“And” between values parts separate entries of the source, which are not always exact repeats. Equal entries are not always repeated.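 Grown in 96-well plates, cells were treated for 48 hours with each compound at five concentrations. Insufficient inhibition: endpoint recorded as highest concentration tested. GI50 = concentration required for 50% inhibition of growth. At the TGI there is no net growth.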

Experiments:
Assay in all cases: NCI anticancer screen, dose series, 48 h
[1] = tested on: 786-0 renal
[2] = tested on: A498 renal
[3] = tested on: A549 NSCLC
[4] = tested on: ACHN renal
[5] = tested on: BT-549 breast
[6] = tested on: CAKI-1 renal
[7] = tested on: CCRF-CEM leukemia
[8] = tested on: COLO 205 colon
[9] = tested on: DU-145 prostate
[10] = tested on: EKVX NSCLC
[11] = tested on: HCC-2998 colon
[12] = tested on: HCT-116 colon
[13] = tested on: HCT-15 colon
[14] = tested on: HL-60(TB) leukemia
[15] = tested on: HOP-62 NSCLC
[16] = tested on: HOP-92 NSCLC
[17] = tested on: HS 578T breast
[18] = tested on: HT29 colon
[19] = tested on: IGROV1 ovarian
[20] = tested on: K-562 leukemia
[21] = tested on: KM12 colon
[22] = tested on: LOX IMVI melanoma
[23] = tested on: M14 melanoma
[24] = tested on: MALME-3M melanoma
[25] = tested on: MCF7 breast
[26] = tested on: MDA-MB-231 breast
[27] = tested on: MDA-MB-435
[28] = tested on: MOLT-4 leukemia
[29] = tested on: NCI-H226 lung
[30] = tested on: NCI-H23 lung
[31] = tested on: NCI-H460 lung
[32] = tested on: NCI-H522 lung
[33] = tested on: NCI/ADR-RES ovarian
[34] = tested on: OVCAR-3 ovarian
[35] = tested on: OVCAR-4 ovarian
[36] = tested on: OVCAR-5 ovarian
[37] = tested on: OVCAR-8 ovarian
[38] = tested on: PC-3 prostate
[39] = tested on: RPMI-8226 leukemia
[40] = tested on: RXF 393 renal
[41] = tested on: SF-268 CNS
[42] = tested on: SF-295 CNS
[43] = tested on: SF-539 CNS
[44] = tested on: SK-MEL-2 melanoma
[45] = tested on: SK-MEL-28 melanoma
[46] = tested on: SK-MEL-5 melanoma
[47] = tested on: SK-OV-3 ovarian
[48] = tested on: SN12C renal
[49] = tested on: SNB-19 CNS
[50] = tested on: SNB-75 CNS
[51] = tested on: SR leukemia
[52] = tested on: SW-620 colon
[53] = tested on: T-47D breast
[54] = tested on: TK-10 renal
[55] = tested on: U251 CNS
[56] = tested on: UACC-257 melanoma
[57] = tested on: UACC-62 melanoma
[58] = tested on: UO-31 renal

Q: What does the source list for `CNc1ncc2cc(-c3cc(NC(=O)NCCC(C)(C)C)c(F)cc3C)c(C)nc2n1`?
A: GI50 [1]: 811 nM and 810 nM; TGI [1]: > 100 µM; GI50 [2]: 149 nM and 167 nM; TGI [2]: 743 nM and 650 nM; GI50 [3]: 754 nM and 598 nM; TGI [3]: > 100 µM; GI50 [4]: 198 nM and 262 nM; TGI [4]: > 24.6 µM; GI50 [5]: 3290 nM and 2490 nM; TGI [5]: > 100 µM; GI50 [6]: 437 nM and 200 nM; TGI [6]: > 100 µM; GI50 [7]: 10.1 µM and > 9.36 µM; TGI [7]: > 100 µM; GI50 [8]: < 13.3 nM and 13.5 nM; TGI [8]: 1380 nM and > 4300 nM; GI50 [9]: 535 nM and 685 nM; TGI [9]: > 100 µM; GI50 [10]: 2540 nM and 1380 nM; TGI [10]: 99.6 µM and > 10 µM; GI50 [11]: 283 nM and 207 nM; TGI [11]: > 77.2 µM; GI50 [12]: 80.5 nM and 85.8 nM; TGI [12]: 11.8 µM and > 10 µM; GI50 [13]: 407 nM and 429 nM; TGI [13]: > 64.8 µM; GI50 [14]: 66.8 nM and 81.1 nM; TGI [14]: 17.8 µM and > 10 µM; GI50 [15]: 195 nM and 298 nM; TGI [15]: 12.7 µM and > 10 µM; GI50 [16]: 57.1 nM and 90.3 nM; TGI [16]: 423 nM and 511 nM; GI50 [17]: 839 nM and 582 nM; TGI [17]: 33.5 µM and > 10 µM; GI50 [18]: 17.7 nM and 19.4 nM; TGI [18]: > 41.5 µM; GI50 [19]: 179 nM and 151 nM; GI50 [20]: 227 nM and 330 nM; TGI [20]: > 100 µM; GI50 [21]: 405 nM and 448 nM; TGI [21]: > 100 µM; GI50 [22]: 102 nM and 57.3 nM; TGI [22]: 2230 nM and 2000 nM; GI50 [23]: < 10 nM and 10.5 nM; GI50 [24]: < 10 nM and 4.62 nM; TGI [24]: < 11 nM and 52.2 nM; GI50 [25]: 4.98 µM and 8.58 µM; TGI [25]: > 100 µM; GI50 [26]: 61.9 nM and 156 nM; TGI [26]: 1670 nM and 1410 nM; GI50 [27]: 29.9 nM and 38.9 nM; TGI [27]: > 39.4 µM; GI50 [28]: 688 nM and > 2450 nM; TGI [28]: > 69.7 µM; GI50 [29]: 1110 nM and 298 nM; TGI [29]: > 100 µM; GI50 [30]: 147 nM and 186 nM; TGI [30]: > 42.1 µM; GI50 [31]: 473 nM and 332 nM; TGI [31]: > 100 µM; GI50 [32]: 294 nM and 333 nM; TGI [32]: > 20.9 µM; GI50 [33]: 1500 nM and 1350 nM; TGI [33]: > 100 µM; GI50 [34]: 1930 nM and 1890 nM; TGI [34]: > 100 µM; GI50 [35]: 543 nM and 785 nM; TGI [35]: > 100 µM; GI50 [36]: 76.1 nM and 83 nM; TGI [36]: > 100 µM; GI50 [37]: 512 nM and 515 nM; TGI [37]: > 100 µM; GI50 [38]: 17.4 µM and 6.93 µM; TGI [38]: > 100 µM; GI50 [39]: 907 nM and 685 nM; TGI [39]: > 52.6 µM; GI50 [40]: 1010 nM and 504 nM; TGI [40]: 5.99 µM and > 6.39 µM; GI50 [41]: 716 nM and 721 nM; TGI [41]: > 100 µM; GI50 [42]: 1560 nM and 1470 nM; TGI [42]: > 100 µM; GI50 [43]: 526 nM and 1050 nM; TGI [43]: 9.49 µM and > 10 µM; GI50 [44]: 27.7 nM and 42.6 nM; TGI [44]: 143 nM and 265 nM; GI50 [45]: < 10 nM and 10.1 nM; TGI [45]: 118 nM and 239 nM; GI50 [46]: 458 nM and 309 nM; TGI [46]: 16.3 µM and > 10 µM; GI50 [47]: 359 nM and 431 nM; TGI [47]: 4.36 µM and 5.87 µM; GI50 [48]: 485 nM and 411 nM; TGI [48]: > 100 µM; GI50 [49]: 2230 nM and 1550 nM; TGI [49]: > 100 µM; GI50 [50]: 949 nM and 1040 nM; TGI [50]: 7.36 µM and 7.6 µM; GI50 [51]: 811 nM and 3130 nM; TGI [51]: > 75.2 µM; GI50 [52]: 270 nM and 256 nM; TGI [52]: > 100 µM; GI50 [53]: 819 nM and 1510 nM; TGI [53]: 25.1 µM and > 10 µM; GI50 [54]: 241 nM and 243 nM; TGI [54]: 5.07 µM and 6.79 µM; GI50 [55]: 572 nM and 474 nM; TGI [55]: 31.6 µM and > 10 µM; GI50 [56]: 13.9 nM; TGI [56]: 55.5 nM; GI50 [57]: < 10 nM and 5.85 nM; TGI [57]: 88.1 nM and 121 nM; GI50 [58]: 143 nM and 117 nM; TGI [58]: > 67.7 µM
